Measured values reported in patent publication US12545674B2, “Crystal of trifluoromethyl/chloro disubstituted sulfonamide selective BCL-2 inhibitor” (priority 2020, dated 2026).

Columns and labels:
[1] = In vitro stability in liver microsomes, mouse; assay type: in vitro ADME; conditions: 1 μM
Protocol: (§1) 300 μL of the final incubation system contains 30 μL of liver microsomes (protein concentration: 5 mg/mL), 30 μL of NADPH+MgCl2, 3 μL of the test compound (in acetonitrile), and 237 μL of PBS buffer (pH 7.4). Among them, the proportion of the organic solvent (acetonitrile) was 1% (volume ratio). Samples were prepared in duplicate for each species (mouse, rat and human), with 0.3 mL each. […] 50 μL of the mixture was taken at 0 min, 15 min, 30 min and 60 min, and 300 μL of glacial acetonitrile containing an internal standard was added to terminate the reaction. 50 μL of the incubated sample was added with 300 μL of glacial acetonitrile containing an internal standard (20 ng/mL diazepam) for precipitation. The mixture was vortexed for 5 min, and centrifuged (13,000 rpm, 20° C.) for 10 min 70 μL of supernatant was taken and 70 μL of ultrapure water was added for dilution and homogeneous mixing. 1 μL of sample was injected for analysis.

[2] = In vitro stability in liver microsomes, rat; assay type: in vitro ADME; conditions: 1 μM
Protocol: as §1

[3] = In vitro stability in liver microsomes, human; assay type: in vitro ADME; conditions: 1 μM
Protocol: as §1

[4] = system: human B-cell leukemia RS4;11 subcutaneous xenograft; assay: Pharmacodynamics in human B-cell leukemia RS4;11 subcutaneous xenograft model; assay type: in vivo, NOD/SCID mice; conditions: 25 mg/kg p.o. single dose, Day 17 after end of treatment
From the text: NOD/SCID mice, female, aged 9-10 weeks (ages upon tumor cell grafting), body weight of 16.3-22.0 g. The mice were purchased from Beijing AniKeeper Biotech Co., Ltd. (production license number: SCXK (Jing) 2017-0006; animal certification number: 11402400013155). Breeding environment: SPF grade. Mice were grafted subcutaneously on the right anterior dorsal side with 1×10^7 RS4;11 cells. The day of grafting was defined as day 0. When the mean tumor volume was 240 mm^3, the mice were randomized by the tumor size. The administration was performed as per Table 16 below.
Clinical symptoms observed during the study were recorded in the raw data. Calculation formula for tumor volume: Tumor volume (mm^3)=½×(a×b^2) (where a represents long diameter and b represents short diameter). The data were collected using StudyDirector™ software (version No. 3.1.399.19, supplier: Studylog System, Inc., S.San Francisco, CA, USA) in the study, including measurements of the long and short diameters of the tumor and body weights of the animals. The raw data obtained from a balance and a vernier caliper were directly input into the software, and any change in the data was recorded. Relative tumor proliferation rate (T/C %) refers to the percentage of the relative tumor volume or tumor weight of the treatment and control groups at a certain time point. The calculation formula is as follows: T/C %=TRTV/CRTV×100%(TRTV:mean RTV for treatment group;CRTV:mean RTV for vehicle control group;RTV=Vt/V0, where V0 denotes the tumor volume of the animal upon grouping, and Vt denotes the tumor volume of the animal after treatment).
(T and C are the relative tumor volume (RTV) or tumor weight (TW) at a particular time point for the treatment and control groups, respectively).
All experimental results were expressed as mean tumor volume±SEM (standard error of mean). The relative tumor volume of the treatment group was compared with that of the control group for any significant difference by the independent sample T test. All the data were analyzed using SPSS 18.0. p<0.05 was defined as a significant difference.

[5] = system: human platelet caspase-3 activity; assay: Human platelet toxicity study (caspase-3 activity assay); assay type: cell-based; conditions: human platelets, compound concentration 1 μM, 90 min; normalized, reference ABT-199
Protocol: 10 mL of human whole blood was collected using a heparin sodium anticoagulation tube, mixed well by turning upside down, and centrifuged at 90 g for 10 min. The supernatant was collected and centrifuged at 1950 g for 10 min. The supernatant was discarded, and the residue was resuspended in 4 mL of PBS, and centrifuged at 1190 g for 5 min. The procedure was repeated once. The supernatant was discarded, and the platelets were resuspended in PBS and adjusted to a density of 2-3×10^8 cells/mL. Cells were seeded into a 96-well plate at a density of […] and at 100 μL/well. 50 μL of control buffer was added to each negative control well, and 50 μL of compound at a corresponding concentration was added to each compound well to adjust the final concentration of the compound to 2.5 μM or 1 μM, followed by incubation in an incubator at 37° C. for 90 min. The liquids in the 96-well plate were transferred to 1.5 mL centrifuge tubes. […] The resulting mixture was mixed gently, and the plate was read by a PE Envision multi-functional microplate reader (excitation: 360 nm, emission: 460 nm) once every 10 min for 6 times. Caspase-3 activity was determined based on the intensity of the released AMC fluorescence, that is the slope of the fitted line to which each well corresponds represents Caspase activity (all data were normalized and the reference was ABT-199).

- Mouse Residuals at 60 min [1]: 73.9%
- Rat Residuals at 60 min [2]: 90.9%
- Human Residuals at 60 min [3]: 86.3%
SMILES: CC1(C)CCC(CN2CCN(c3ccc(C(=O)NS(=O)(=O)c4ccc(NC[C@H]5COCCO5)c([N+](=O)[O-])c4)c(Oc4cnc5[nH]ccc5c4)c3)CC2)=C(c2ccc(C(F)(F)F)cc2Cl)C1 [Compound of formula I]
- T/C [4]: 29.8%
- TGI [4]: 70.2%
- Tumor volume (x ± S) [4]: 600.39 ± 32.88 mm^3
- Slope (caspase-3 activity) [5]: 0.59
